Values quoted from earlier work in US8529954B2, “Composition based on gamma-hydroxybutyric acid” (Debregeas et Associes Pharma, priority 2008, dated 2013).
Counter-ions that a name gives are not always drawn.

Key:
[1] = approximately

For `O=C(O)CCCO` [GHB, Gamma-hydroxybutyric acid], the “stability in an acidic environment” value is given as “unstable”.

For `O=C(O)CCCO` [sodium hydroxybutyrate, sodium salt of 4-hydroxybutyric acid], the “maximum peak after its administration (time of peak)” value ([1]; absorbed by the gastroenteric system) is listed as 30 to 45 min, the half life [1] is listed as 20 to 25 min and the “time in which it is eliminated” value [1] is listed as 4 to 5 h.
